Our source for the IC50 values is ChEMBL document CHEMBL1201862, “PubChem BioAssay data set” (2004).

Molecules are shown by their SMILES. Active and inactive are the calls of the source. No stated cut-off is given here; in the data, actives have a measured IC50 and inactives only a lower limit.

For the assay, the target named is Envelope glycoprotein gp160 (Human immunodeficiency virus 1, UniProt Q6QLK5). The experiment in a line: inhibitors of HIV fusion peptide binding, primary screen, biochemical, uHTS, fluorescence dequenching (AID 1986).
Chain of Envelope glycoprotein gp160 (Q6QLK5 whole entry, the tested form may be a part): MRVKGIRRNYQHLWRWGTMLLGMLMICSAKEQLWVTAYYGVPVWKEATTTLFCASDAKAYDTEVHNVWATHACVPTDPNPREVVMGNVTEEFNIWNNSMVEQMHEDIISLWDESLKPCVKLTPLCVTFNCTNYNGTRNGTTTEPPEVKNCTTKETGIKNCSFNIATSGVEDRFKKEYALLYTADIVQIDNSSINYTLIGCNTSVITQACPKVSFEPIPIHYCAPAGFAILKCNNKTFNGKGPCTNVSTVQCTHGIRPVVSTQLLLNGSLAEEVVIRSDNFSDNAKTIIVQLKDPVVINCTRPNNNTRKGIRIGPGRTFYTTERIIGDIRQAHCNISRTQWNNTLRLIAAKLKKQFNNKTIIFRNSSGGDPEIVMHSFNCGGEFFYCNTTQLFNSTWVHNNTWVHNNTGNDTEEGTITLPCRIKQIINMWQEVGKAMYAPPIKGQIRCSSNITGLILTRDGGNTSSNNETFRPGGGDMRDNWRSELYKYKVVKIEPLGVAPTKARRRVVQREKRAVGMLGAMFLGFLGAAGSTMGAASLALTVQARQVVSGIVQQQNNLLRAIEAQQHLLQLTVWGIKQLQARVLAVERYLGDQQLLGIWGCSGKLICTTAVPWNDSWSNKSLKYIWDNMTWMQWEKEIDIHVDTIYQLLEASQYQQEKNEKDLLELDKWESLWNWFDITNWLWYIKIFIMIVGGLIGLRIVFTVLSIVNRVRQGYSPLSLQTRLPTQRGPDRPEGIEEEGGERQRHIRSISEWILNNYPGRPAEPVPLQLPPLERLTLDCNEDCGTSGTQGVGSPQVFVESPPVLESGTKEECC
Regarding `CC(C)CS(=O)(=O)C1=NSC2=NC(=O)/C(=C\c3ccc(OC(=O)c4ccco4)cc3)C(=N)N21`, the 50% inhibitory concentration (IC50) (in general, the point on the concentration scale where inhibition reaches its midpoint) is 15.6 µM (active). The result for `COc1cc([N+](=O)[O-])cc(/C=N/NC(=O)c2cc(-c3ccccc3)nc3ccccc23)c1O` reads 30.3 µM (active). The result for `CSc1ccc(C(c2c(C(=O)O)[nH]c3ccccc23)c2c(C(=O)O)[nH]c3ccccc23)cc1` reads 8.99 µM (active); that for `CS(=O)(=O)C1=NSC2=NC(=O)/C(=C\c3cccn3-c3ccc(Cl)cc3)C(=N)N21`, 18.5 µM (active).

For `CCOc1ccc(CCNC(=O)c2ccc3c(=O)[nH]c4c(C(=O)NC(C)C)sc(=S)n4c3c2)cc1`, the IC50 was 62.5 µM (active).
